pEC50, pIC50: −log10 of the molar value. “Also recorded” adds a separate entry of the source. Where a SMILES comes first, the peptide text is derived from it. Bridges are numbered along the chain shown (N, C = ends). Where no end group is shown, it is not given here. [ ]: non-standard residue; d: D form. Lys(Me3) = C[N+](C)(C)CCCC[C@H](N)C(=O)O; Phe(4-F) = N[C@@H](Cc1ccc(F)cc1)C(=O)O; NMeV = CN[C@H](C(=O)O)C(C)C; NMeC = CN[C@@H](CS)C(=O)O
How the values were obtained:
[1] = biological target: T1, KDM4A (Homo sapiens, UniProt O75164); experiment: AlphaScreen demethylase activity assay, KDM4A; format: biochemical; conditions: for pIC50: KDM4A 1-359
T1 construct: KDM4A 1-359 E.coli; Hexa-His (N); made in house; host or cells: E. coli
T1 sequence (O75164 1-359): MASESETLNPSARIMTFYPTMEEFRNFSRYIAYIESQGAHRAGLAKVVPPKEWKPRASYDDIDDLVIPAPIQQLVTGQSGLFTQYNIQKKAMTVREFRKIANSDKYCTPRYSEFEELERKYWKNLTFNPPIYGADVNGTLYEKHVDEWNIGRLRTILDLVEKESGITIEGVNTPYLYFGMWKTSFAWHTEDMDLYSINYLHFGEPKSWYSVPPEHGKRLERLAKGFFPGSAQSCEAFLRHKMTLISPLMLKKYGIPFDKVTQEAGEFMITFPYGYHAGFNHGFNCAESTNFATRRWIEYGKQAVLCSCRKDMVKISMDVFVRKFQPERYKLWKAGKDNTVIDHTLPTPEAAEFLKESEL
Procedure: IC50 values for KDM2–6 were measured using an AlphaScreen assay as described. The appropriate KDM (5 μl) was pre-incubated with an inhibitor (0.1 μl in DMSO) or DMSO for 15 min before the addition of 5 μl mixture of biotinylated peptide substrates, 2OG, ferrous ammonium sulfate (1–10 μM final) and ascorbate (100 μM final) to initiate the demethylation reaction. The reaction was quenched with 5 μl of 30 mM EDTA at predetermined reaction times for each enzyme (initial rate). Demethylated product was detected by addition of 5 μl of AlphaScreen donor and acceptor beads (AlphaScreen General IgG Detection Kit, 0.02 mg ml^−1 final each) pre-incubated with antibody. The plates were read after 1 h incubation in a BMG Labtech Pherastar FS plate reader. Data were normalized to a no enzyme control and IC50 values were calculated using nonlinear regression curve fits using GraphPad Prism. Assay buffer (50 mM HEPES pH 7.5, BSA (0.1% w/v) and Tween-20 (0.01% v/v)) was used throughout, except for dilution of stock ferrous ammonium sulfate solutions where water was used. The enzyme, substrate and antibody concentrations used are described in Supplementary Table 3. A fluorescence-based LSD1 inhibitor screening assay kit (Cayman, 700120) was used for KDM1/LSD1 assay. Assays for prolyl hydroxylase domain 2 and factor inhibiting HIF using matrix-assisted laser desorption/ionization–time of flight MS were performed as previously described. Prism 5.0 (GraphPad) was used to generate and to fit dose–response curves. IC50 values were determined by plotting percentage inhibition versus compound concentration relative to positive (vehicle) and negative (no enzyme) controls, using normalized dose–response (variable slope) fit. The reported values are the mean of multiple experiments (n≥3). The formaldehyde dehydrogenase coupled KDM assay was used to determine the mode of inhibition, using 0.5 μM His-KDM4A1–359. Prism 5.0 (GraphPad) was used to fit in mix-mode inhibition, to determine the kinetic parameters. Binding constants for CPs and H3(1–15)K9me3 were measured using biolayer interferometry (OctetRed 384, ForteBio) in buffer (50 mM HEPES (pH 7.5), 150 mM NaCl, 10 μM ammonium iron(II) sulphate). His-KDM4A1–359-Bio (70 nM) was immobilized onto super streptavidin biosensor and subjected to different peptide concentrations in buffer. Data analysis was performed using ForteBio Data Aalysis (v6.4).
Construct Expression [E] / nM [2OG] / µM [Fe(II)] / µM Peptide / nM Peptide sequence Antibody Source […]
Supplementary Table 3. AlphaScreen assay parameters for 2OG oxygenases used for this study. The table was dapted from 10. Assays were performed at 2OG concentration near the 2OG Km values determined experimentally.11 All enzymes were expressed and purified as described.10-12

[2] = biological target: T2, KDM4C (Homo sapiens, UniProt Q9H3R0); experiment: AlphaScreen demethylase activity assay, KDM4C; format: biochemical
T2 construct: KDM4C 1-366 E.coli; made in house; host or cells: E. coli
T2 sequence (Q9H3R0 1-366): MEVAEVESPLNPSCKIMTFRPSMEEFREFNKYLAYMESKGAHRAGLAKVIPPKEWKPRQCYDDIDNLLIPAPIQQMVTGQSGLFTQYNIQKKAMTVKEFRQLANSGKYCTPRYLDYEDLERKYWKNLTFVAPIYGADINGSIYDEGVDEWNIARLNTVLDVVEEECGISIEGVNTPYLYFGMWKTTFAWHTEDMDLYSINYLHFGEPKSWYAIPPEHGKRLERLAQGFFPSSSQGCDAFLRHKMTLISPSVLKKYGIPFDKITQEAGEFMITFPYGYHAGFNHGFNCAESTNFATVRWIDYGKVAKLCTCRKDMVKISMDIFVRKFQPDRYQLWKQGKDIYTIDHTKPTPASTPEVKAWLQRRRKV
Procedure: IC50 values for KDM2–6 were measured using an AlphaScreen assay as described. The appropriate KDM (5 μl) was pre-incubated with an inhibitor (0.1 μl in DMSO) or DMSO for 15 min before the addition of 5 μl mixture of biotinylated peptide substrates, 2OG, ferrous ammonium sulfate (1–10 μM final) and ascorbate (100 μM final) to initiate the demethylation reaction. The reaction was quenched with 5 μl of 30 mM EDTA at predetermined reaction times for each enzyme (initial rate). Demethylated product was detected by addition of 5 μl of AlphaScreen donor and acceptor beads (AlphaScreen General IgG Detection Kit, 0.02 mg ml^−1 final each) pre-incubated with antibody. The plates were read after 1 h incubation in a BMG Labtech Pherastar FS plate reader. Data were normalized to a no enzyme control and IC50 values were calculated using nonlinear regression curve fits using GraphPad Prism. […] A fluorescence-based LSD1 inhibitor screening assay kit (Cayman, 700120) was used for KDM1/LSD1 assay. […] IC50 values were determined by plotting percentage inhibition versus compound concentration relative to positive (vehicle) and negative (no enzyme) controls, using normalized dose–response (variable slope) fit. […] Binding constants for CPs and H3(1–15)K9me3 were measured using biolayer interferometry (OctetRed 384, ForteBio) in buffer (50 mM HEPES (pH 7.5), 150 mM NaCl, 10 μM ammonium iron(II) sulphate). […]

[3] = tested on: KDM4A; parameters: method as in earlier work; conditions: ref 4 (King et al., supplementary references); read-out: EC50 KDM4A inhibition in cells; cited from earlier work
[4] = tested on: H3K9me3/H3K36me3 in HeLa cells; experiment: Immunofluorescence of global histone methylation, 72 h dosing; format: cell-based; conditions: 72 h treatment
Excerpt: Supplementary Figure 12. Immunofluorescence analysis of global histone methylation levels after 72hr dosing of cyclic peptides in HeLa cells. (a)-(c) Immunofluorescence analysis of HeLa cells dosed with cyclic peptides for 72 hrs. Maximum intensity projected images of 3D confocal z-stacks showing nuclei stained with […]
DMSO and CP2 treated cells. Bar represents 50µm. Global H3K9me3 (d) and associated nuclei count for the […]
staining, (h) global H3K4me3 and (i) global H3K27me3 staining. An increase in fluorescence intensity, […]
over certain concentration ranges. Average +/- s.e.m (n > 100 cells) are shown except at concentrations of […]
A generic 2OG oxygenase inhibitor 5-carboxy-8-
Immunofluorescence (IF) assay […]
with 0.5% FBS and 1% Pen-Strep. […]
grade plate (Becton Dickinson) and left overnight to adhere. Cells were dosed with cyclic […]
After 30min blocking (3% FBS in […]
three times after each incubation. […]
Image acquisition and analysis […]
image immunostained cells in a 96-well plate configuration. For each well, the system […]
The average intensity for each […]
analysed using GraphPad Prism 5. […]

[5] = tested on: FLAG-KDM4A in HeLa cells; experiment: Immunofluorescence of H3K9me3 in HeLa cells overexpressing FLAG-KDM4A, 24 h dosing
[6] = biological target: T3, KDM4A1-359 (Homo sapiens, UniProt O75164); experiment: MALDI-TOF MS demethylation of CP2 variants as substrates; format: biochemical; conditions: KDM4A 2 μM, peptide 10 μM, 2OG 100 μM, 2 h 37 °C
T3 construct: Hexa-His (N); made in house
T3 sequence (O75164 1-359): T1 sequence (O75164 1-359)
Procedure: Figure 3 KDM4A can demethylate methylated lysine and arginine containing non-histone sequences. […] The reaction product was analysed using matrix-assisted laser desorption/ionization–time of flight MS. Reactions containing enzymes are in red, no enzyme peptide controls are in black.

[7] = biological target: T4, His-KDM4A1-359-Bio (Homo sapiens, UniProt O75164); experiment: Biolayer interferometry binding to KDM4A
T4 construct: KDM4A protein (residues 1-359) was cloned into the pNIC-Bio3 plasmid, which incorporates a C-terminal AviTag; made in house; host or cells: E. coli BL21(DE3)Rosetta co-transfected with pCDF-BirA
T4 sequence (O75164 1-359): T1 sequence (O75164 1-359)

CC[C@H](C)[C@@H]1NC(=O)CNC(=O)[C@H](CC(C)C)NC(=O)[C@H](Cc2c[nH]c3ccccc23)NC(=O)[C@H](Cc2ccc(O)cc2)NC(=O)[C@@H](Cc2ccc(O)cc2)NC(=O)CSC[C@@H](C(N)=O)NC(=O)[C@H](Cc2ccc(O)cc2)NC(=O)[C@H](CO)NC(=O)[C@H](CCCNC(=N)N)NC(=O)[C@@H]2CCCN2C(=O)[C@H]([C@@H](C)O)NC1=O [CP1] ({CH2CO}-[dY]YWLGITPRSYC-NH2; thioether N-12)
pIC50 ([1]; AlphaScreen): < 4.00

CC(C)[C@H]1C(=O)N[C@@H](Cc2ccc(O)cc2)C(=O)N[C@@H](CC(N)=O)C(=O)N[C@@H]([C@@H](C)O)C(=O)N[C@@H](C)C(=O)N[C@@H](CO)C(=O)N[C@H](C)C(=O)N[C@@H](Cc2c[nH]c3ccccc23)C(=O)N[C@@H](CCCNC(=N)N)C(=O)N[C@@H](Cc2c[nH]c3ccccc23)C(=O)N[C@@H](Cc2ccc(F)cc2)C(=O)N2CCC[C@H]2C(=O)N(C)[C@H](C(N)=O)CSCC(=O)N[C@H](Cc2ccc(O)cc2)C(=O)N1C [CP2.3(R6A)] ({CH2CO}-[dY][NMeV]YNTAS[dA]WRW[Phe(4-F)]P[NMeC]-NH2; thioether N-14)
pIC50 [2]: < 5.00

CC[C@H](C)[C@@H]1NC(=O)[C@H](C)NC(=O)[C@@H]2CCCN2C(=O)[C@H]([C@@H](C)O)NC(=O)[C@H](Cc2ccc(O)cc2)NC(=O)[C@H](Cc2ccccc2)NC(=O)[C@H](Cc2c[nH]c3ccccc23)NC(=O)[C@H](Cc2ccc(O)cc2)NC(=O)CSC[C@@H](C(N)=O)NC(=O)[C@H](Cc2c[nH]c3ccccc23)NC(=O)[C@H](CCCNC(=N)N)NC1=O [CP3] ({CH2CO}-YWFYTPAIRWC-NH2; thioether N-11)
pIC50 [2]: < 4.00
pIC50 ([1]; AlphaScreen): < 4.00

DY(meV)YNTRSDAWRW(4FF)P(meC) [CP2.3]
Inhibitor range with increases in nuclear H3K9me3/H3K36me3 staining [4]: 10 to 20 µM

DY(meV)YNTRSDAWRWY(meT)(meC) [CP2.2]
Inhibitor range with increases in nuclear H3K9me3/H3K36me3 staining [4]: 10 to 20 µM

DYVYNTRSDAWRWYT(meC) [CP2.1]
Inhibitor range with increases in nuclear H3K9me3/H3K36me3 staining [4]: 10 to 20 µM

DYVYNTRSGWRWYTC [Linear CP2]
KDM4A IC50 relative to CP2 ([1]; AlphaScreen): four fold higher

DYVYNTRSGWRWYTC-BRRRRRRRRR [CP2(polyR)]
H3K9me3 levels in cells overexpressing FLAG-KDM4A (cellular KDM4A demethylase activity) [5]: Loss of H3K9me3 staining; also recorded: no inhibition of cellular KDM4A demethylase activity

DYVYNT[Lys(Me3)]SGWRWYTC [R6Kme3]
Demethylation of the peptide by KDM4A (substrate) [6]: efficiently demethylated
Demethylation of the peptide by KDM4A (substrate) ([6]; listed as CP2(R6Kme3)): substrates of KDM4A

LYLKSRRSGLTWIPC [CP4]
Intra-subfamily selectivity KDM4A-C over KDM4D-E ([1]; ratio of IC50 values): > 100 fold
Selectivity by IC50 for KDM4 over other JmjC-demethylase families, PHD2, FIH and KDM1A ([1]; ratio of IC50 values): > 160 fold
KDM4A Binding kdiss [7]: 0.000784 s⁻¹
KDM4A Binding kon [7]: 21800 M⁻¹ s⁻¹

LYSKYTQSGVRWVC [CP5]
Selectivity by IC50 for KDM4 over other JmjC-demethylase families, PHD2, FIH and KDM1A ([1]; ratio of IC50 values): > 160 fold
KDM4A Binding kdiss [7]: 0.0107 s⁻¹
KDM4A Binding kon [7]: 62000 M⁻¹ s⁻¹

LYVYNT(Rme2a)SGWRWYTC (not fully specified (N-terminus, bridges)) [CP2(R6me2a)]
Demethylation of the peptide by KDM4A (substrate) [6]: demethylate; also recorded: substrates of KDM4A
